One series has as its system HFLS-RA cells. Put plainly: Effect on HFLS-RA cell proliferation activity (CCK-8). The format is cell-based, human. Particulars: TNF-α 10 ng/mL induced HFLS-RA cells, 72 h after treatment, x ± s. As for the experimental part:
Co-incubation: HFLS-RA cells in a logarithmic growth phase were inoculated in a 96-well culture plate at a density of 3×10^4 cells/ml with an inoculation volume of each well being 100 μL, and cultured for 24 h in a 37° C. and 5% CO2 incubator (the cell adhesion convergence degree reached about 25%) after inoculation, and then a proper amount of sample solutions was added according to the grouping and final concentrations of samples, with 3 duplicated wells set in each group. Before sampling (0 h), group 1 in blank control group was subjected to CCK-8 detection, and the rest groups were cultured for 72 h in an incubator and then subjected to CCK-8 detection.
Detection and calculation: the culture solution was discarded, and 100 μL of culture medium containing a 10% CCK-8 solution was added into each well and incubated for 2 h at 37° C. The light absorption value (OD value) was measured at 450 nm using a microplate reader, and the cell proliferation rate was calculated according to the following formula.
cell proliferation rate=[OD(72 h)−OD(0 h)]/OD(0 h)×100%, Calculation formula
where, OD(0 h) represents the OD value at 0 h, and […].

For the next series, the system named is IL-6 in HFLS-RA cells. Put plainly: Effect on HFLS-RA cytokine secretion, IL-6 (ELISA). It is filed as cell-based, human. On the set-up: unit not given here. Particulars: supernatant content, TNF-α 10 ng/mL, test sample 100 µg/mL, 48 h culture, x ± s. As for the experimental part: (§1) The experiment was divided into a blank control group (containing no test samples or TNF-α), a TNF-α group (the final concentration of TNF-α for cell incubation was 10 ng/mL), test sample groups (8 groups in total, including DSC4801 group, DSC4807 group, DSC4810 group, DSC4813 group, DSC4821 group and DSC4826 group as well as control 1 group, control 3 group, the final concentrations of test samples for cell incubation and of TNT-α were 100 µg/mL and 10 ng/mL, respectively).
(§2) HFLS-RA cells in a logarithmic growth phase were inoculated in a 6-well culture plate at a density of 5×10^4 cell/ml with an inoculation volume of each well being 200 μL, and cultured for 2 h in a 37° C. and 5% CO2 incubator after inoculation, and then a proper amount of sample solutions was added according to the grouping and the final concentrations of samples, with 3 duplicated wells set in each group. Cell supernatant was collected after further culture of 48 h, and the contents of IL-6 and IL-8 in the supernatant were detected using an ELISA kit.
A general note: In an ELISA, binding on a coated surface is turned into a signal by an enzyme label.

The test system of a further series is IL-8 in HFLS-RA cells. Put plainly: Effect on HFLS-RA cytokine secretion, IL-8 (ELISA). It is filed as cell-based, human. Particulars: supernatant content, TNF-α 10 ng/mL, test sample 100 µg/mL, 48 h culture, x ± s. On the set-up: unit not given here. As for the experimental part: as §1, §2
Series [1] in a line: Joint tissue distribution after oral gavage. It is filed as in vivo. Particulars: SD rats, ankle joint tissue at 0.5, 1, 2 h, trans-OH metabolite detected by LC-MS/MS, compared with control 1 and control 2, P<0.001 (FIG. 1). As for the experimental part: 36 healthy male SD rats with a body weight of 200±20 g per rat were fed under conditions of a room temperature of 20-26° C., a humidity of 40%-70% and a light and dark cycle of 12 h/12 h, the rats were fed at liberty in the process of feeding. After adaptive feeding for 3 days, the SD rats were randomly divided into 4 groups (A/B/C/D groups), with 9 rats per group, each group was further randomly divided into 3 time groups, with 3 rats per time group. A suspension (the test samples were suspended with 1% MS, respectively) of the test sample was given to each group via oral gavage, wherein group A was administrated with 3 mg/kg of DSC4813, group B was administrated with 2.94 mg/kg of DSC4821, group C was administrated with 2.47 mg/kg of control 1, and group D was administrated with 2 mg/kg of control 2 (loxoprofen). 3 rats were anesthetized and euthanized in each group at 0.5 h, 1 h and 2 h, respectively after administration. The left and right ankle joints of hind legs were dissected, and the skin at the joints was peeled off. […] To-be-detected substances were detected by LC-MS/MS (compound trans-OH metabolite was detected for groups A/B/C, loxoprofen and all isomers whose carbonyl was reduced to OH for group D, and the results of group D were a sum of concentrations of loxoprofen and all isomers whose carbonyl was reduced to OH).

For series [2] the following is noted: after oral administration; cited from earlier work.
For series [3] the following is noted: cited from earlier work.
For series [4] the following is noted: single local administration of 1% loxoprofen (100 mg), in 12 hours; cited from earlier work.

Regarding `CCN(CC)CCOC(=O)O[C@H]1CCC[C@@H]1Cc1ccc([C@H](C)C(=O)O)cc1` [DSC4826], in the series with HFLS-RA cells, the Cell proliferation rate turned out to be 21.43 ± 1.94%. For the same molecule, the IL-6 with IL-6 in HFLS-RA cells is listed as 47.59 ± 0.45. This molecule registered an IL-8 with IL-8 in HFLS-RA cells of 117.77 ± 4.23. Turning to `CC(C(=O)O)c1ccc(CC2CCCC2=O)cc1` (stereo not drawn) [Control 2, loxoprofen, reference compound], the Cell proliferation rate with HFLS-RA cells is on record as 48.25 ± 3.21%. Consider `CCOC(=O)[C@@H](C)c1ccc(C[C@H]2CCC[C@@H]2OC(=O)CCN(CC)CC)cc1` [DSC4820], for which, in the series with HFLS-RA cells, the Cell proliferation rate is 21.11 ± 3.56%. Same read-out and setting: the same measure for `CC(=O)O[C@H]1CCC[C@@H]1Cc1ccc([C@H](C)C(=O)OCCN2C(=O)CCC2=O)cc1` [DSC4814]: 24.36 ± 1.99%.

Regarding `C[C@H](C(=O)OCCN1C(=O)CCC1=O)c1ccc(C[C@H]2CCC[C@@H]2O)cc1` [DSC4813], in the series on HFLS-RA cells, the Cell proliferation rate worked out at 22.34 ± 2.72%. This molecule displayed an IL-6 with IL-6 in HFLS-RA cells of 46.82 ± 0.63. Further, the IL-8 with IL-8 in HFLS-RA cells is reported as 119.48 ± 4.07. Moreover, the Distribution at joints result in series [1] is “significantly improved”. Regarding `CC[N+](CC)(CC)CCOC(=O)[C@@H](C)c1ccc(C[C@H]2CCC[C@@H]2O)cc1` [DSC4815], in the series on HFLS-RA cells, the Cell proliferation rate came to 28.31 ± 2.26%. Turning to `C[C@H](C(=O)O)c1ccc(C[C@H]2CCC[C@@H]2OC(=O)C(N)CS)cc1` (stereo partly drawn) [DSC4809], the Cell proliferation rate in the series on HFLS-RA cells is reported as 22.47 ± 1.99%. Turning to `CCOC(=O)[C@@H](C)c1ccc(C[C@H]2CCC[C@@H]2OC(=O)C(CS)N(C)C)cc1` (stereo partly drawn) [DSC4812], in the series on HFLS-RA cells, the Cell proliferation rate turned out to be 23.81 ± 2.21%.

Regarding `CC(C(=O)O)c1ccc(CC2CCCC2=O)cc1` (stereo not drawn) [Control 2, loxoprofen], the “Time until plasma concentration reaches peak” value in series [2] is 30 to 50 min. Moreover, the “Plasma protein binding rate” value in series [3] was 97%. Moreover, the “Dose transferred to a body” value in series [4] was 10%. Consider `CCN(CC)CCOC(=O)[C@@H](C)c1ccc(C[C@H]2CCC[C@@H]2O)cc1` [DSC4801], for which the Cell proliferation rate with HFLS-RA cells is 31.18 ± 1.82%. This molecule had an IL-6 in the series with IL-6 in HFLS-RA cells of 46.26 ± 0.35. This molecule also showed an IL-8 with IL-8 in HFLS-RA cells of 119.08 ± 4.55.

`CCN(CC)CCOCCOC(=O)[C@@H](C)c1ccc(C[C@H]2CCC[C@@H]2OC(C)=O)cc1` [DSC4805]: the Cell proliferation rate in the series on HFLS-RA cells was found to be 29.28 ± 1.92%. On the same count and under the same terms, the figure for `CCOC(=O)[C@@H](C)c1ccc(C[C@H]2CCC[C@@H]2OC(=O)OCCN(CC)CC)cc1` [DSC4825] is 22.53 ± 2.66%; for `CCN(CC)CCOCCOC(=O)[C@@H](C)c1ccc(C[C@H]2CCC[C@@H]2O)cc1` [DSC4802] it is 27.26 ± 2.41%. Molecule `C[C@H](C(=O)O)c1ccc(C[C@H]2CCC[C@@H]2OC(=O)C(CS)N(C)C)cc1` (stereo partly drawn) [DSC4810] showed a Cell proliferation rate with HFLS-RA cells of 24.95 ± 2.65%. For the same molecule, the IL-6 in the series on IL-6 in HFLS-RA cells is on record as 47.88 ± 0.72. Moreover, the IL-8 in the series with IL-8 in HFLS-RA cells is 118.57 ± 3.92.

`CC[N+](CC)(CC)CCOC(=O)[C@@H](C)c1ccc(C[C@H]2CCC[C@@H]2O)cc1` [DSC4816] showed a Cell proliferation rate with HFLS-RA cells of 29.71 ± 2.83%.

In the series on HFLS-RA cells (methotrexate 1 g/mL), `CN(Cc1cnc2nc(N)nc(N)c2n1)c1ccc(C(=O)N[C@@H](CCC(=O)O)C(=O)O)cc1` [Negative control group, methotrexate, reference compound] showed a Cell proliferation rate of 18.37 ± 1.32%. `CCCC(=O)O[C@H]1CCC[C@@H]1Cc1ccc([C@H](C)C(=O)O)cc1` [Control 1, reference compound]: the Cell proliferation rate in the series with HFLS-RA cells is given as 39.33 ± 3.46%. This molecule also registered an IL-6 in the series with IL-6 in HFLS-RA cells of 67.45 ± 2.68. The IL-8 in the series with IL-8 in HFLS-RA cells is reported as 131.21 ± 6.88. `CCN(CC)CC(=O)O[C@H]1CCC[C@@H]1Cc1ccc([C@H](C)C(=O)O)cc1` [DSC4821] gave a Cell proliferation rate in the series on HFLS-RA cells of 20.96 ± 1.85%. Besides, the IL-6 in the series with IL-6 in HFLS-RA cells amounted to 46.58 ± 0.61. In addition, the IL-8 with IL-8 in HFLS-RA cells was 117.72 ± 3.43. In addition, the Distribution at joints entry in series [1] is recorded as “significantly improved”. For the molecule `CCN(CC)CCOC(=O)[C@@H](C)c1ccc(C[C@H]2CCC[C@@H]2OC(=O)C(CS)N(C)C)cc1` (stereo partly drawn) [DSC4806], the Cell proliferation rate in the series on HFLS-RA cells is given as 24.19 ± 2.24%. On the same count and under the same terms, the same measure for `CCOC(=O)[C@@H](C)c1ccc(C[C@H]2CCC[C@@H]2OC(=O)COCC[N+](CC)(CC)CC)cc1` [DSC4817]: 23.32 ± 2.46%; for `CCN(CC)CCNCCOCC(=O)O[C@H]1CCC[C@@H]1Cc1ccc([C@H](C)C(=O)O)cc1` [DSC4808]: 23.11 ± 2.25%; for `CCN(CC)CCOC(=O)[C@@H](C)c1ccc(C[C@H]2CCC[C@@H]2OC(C)=O)cc1` [DSC4804]: 29.36 ± 2.33%. Take `CCN(CC)CCOCC(=O)O[C@H]1CCC[C@@H]1Cc1ccc([C@H](C)C(=O)O)cc1` [DSC4807]: the Cell proliferation rate in the series on HFLS-RA cells is 22.23 ± 3.04%. The molecule also displayed an IL-6 with IL-6 in HFLS-RA cells of 48.01 ± 0.77. This molecule also displayed an IL-8 in the series with IL-8 in HFLS-RA cells of 121.66 ± 4.78. Turning to `CCN(CC)CCN(CC)CCOC(=O)[C@@H](C)c1ccc(C[C@H]2CCC[C@@H]2O)cc1` [DSC4803], the Cell proliferation rate in the series on HFLS-RA cells was found to be 30.17 ± 1.85%.

`CCOC(=O)[C@@H](C)c1ccc(C[C@H]2CCC[C@@H]2OC(=O)COCC[N+](CC)(CC)CC)cc1` [DSC4818]: in the series with HFLS-RA cells, the Cell proliferation rate was determined as 22.54 ± 2.14%. Same read-out and setting: the same measure for `CCOC(=O)[C@@H](C)c1ccc(C[C@H]2CCC[C@@H]2OC(=O)CN(CC)CC)cc1` [DSC4819]: 20.36 ± 2.10%; for `CCOC(=O)[C@@H](C)c1ccc(C[C@H]2CCC[C@@H]2OC(=O)COCCN(CC)CC)cc1` [DSC4811]: 22.37 ± 1.78%.
